Results reported in patent publication US9301961B2, “Autoimmune and inflammatory disorder therapy” (Katholieke Universiteit Leuven, K.U. Leuven R&D, priority 2011, dated 2016).

Tests used:
[1] = tested on: cardiac allograft rejection; assay: Cardiac allograft transplantation model, treatment day -1 to day 30 (Examples 7 and 8); assay type: in vivo, mice (C57BL/6 donor, Balb/c recipient); conditions: Example 7
Procedure: Inbreed C57BL/6 H-2b and Balb/c H-2d female mice, 8-10 weeks old, 20-25 g, were used as donor and recipient, respectively. Heterotopic heart transplantation was performed by implanting the donor heart on the neck of recipients using conventional microsurgery techniques. Graft beating was checked daily by inspection and palpation. Cessation of beating indicated graft rejection, which was confirmed by histological examination. Housing and all experimental animal procedures were approved by the Institutional Animal Care and Research Advisory Committee of the KU Leuven.

[2] = target: T1, PI3KCB (PI3K p110β/p85α (h)) (Homo sapiens, UniProt P42338); assay: Commercial kinase activity assay (Millipore, HTRF); assay type: biochemical; conditions: 10 μM test compound
T1 construct: purchased Millipore
Procedure: LOK (h) was incubated with 8 mM MOPS pH 7.0, 0.2 mM EDTA, 250 μM […], 10 mM MgAcetate and [γ-^33P-ATP] (specific activity approx. 500 cpm/pmol, concentration as required). The reaction was initiated by the addition of the MgATP mix. After incubation for 40 minutes at room temperature, the reaction was stopped by the addition of 3% phosphoric acid solution. 10 μL of the reaction was then spotted onto a P30 filtermat and washed three times for 5 minutes in 75 mM phosphoric acid and once in methanol prior to drying and scintillation counting. PI3K p110β/p85α (h) PI3K (p110β/p85α) (h) was incubated in assay buffer containing 10 μM phosphatidylinositol-4,5-bisphosphate and MgATP (concentration as required). The reaction was initiated by the addition of the MgATP mix. After incubation for 30 minutes at room temperature, the reaction was stopped by the addition of stop solution containing EDTA and biotinylated phosphatidylinositol-3,4,5-trisphosphate. Finally, detection buffer was added, which contains europium-labelled anti-GST monoclonal antibody, GST-tagged GRP1 PH domain and streptavidinallophycocyanin. The plate was then read in time-resolved fluorescence mode and the homogenous time-resolved fluorescence (HTRF®) signal determined according to the formula HTRF=10000×(Em665nm/Em620 nm). […]

[3] = target: T2, PI4KA (PI4K alpha) (Homo sapiens, UniProt P42356); assay: Commercial kinase activity assay (Invitrogen, ADP TR-FRET); assay type: biochemical; conditions: 10 μM test compound
T2 construct: purchased Invitrogen

[4] = target: T3, PAK1 (Homo sapiens, UniProt Q13153); assay: Commercial kinase activity assay (Invitrogen, fluorescence); assay type: biochemical; conditions: 10 μM test compound
T3 construct: made in house; host or cells: E. coli BL21-derived host (T7 phage) or HEK-293
T3 sequence (Q13153 whole entry): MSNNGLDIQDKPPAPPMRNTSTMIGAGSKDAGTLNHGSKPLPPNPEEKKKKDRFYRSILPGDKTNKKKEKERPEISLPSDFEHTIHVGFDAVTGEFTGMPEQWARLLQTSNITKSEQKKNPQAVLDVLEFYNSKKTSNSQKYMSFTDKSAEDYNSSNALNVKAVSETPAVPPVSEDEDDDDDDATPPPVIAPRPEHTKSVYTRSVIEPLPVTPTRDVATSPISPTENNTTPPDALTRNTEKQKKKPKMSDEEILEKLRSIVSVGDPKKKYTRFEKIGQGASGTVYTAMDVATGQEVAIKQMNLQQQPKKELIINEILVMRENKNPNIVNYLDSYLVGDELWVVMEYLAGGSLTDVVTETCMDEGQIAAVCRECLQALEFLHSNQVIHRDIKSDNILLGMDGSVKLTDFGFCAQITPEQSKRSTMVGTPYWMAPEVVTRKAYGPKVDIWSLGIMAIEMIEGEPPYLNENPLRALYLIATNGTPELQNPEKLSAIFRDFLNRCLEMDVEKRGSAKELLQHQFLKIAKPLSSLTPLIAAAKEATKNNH

T2 sequence (P42356 whole entry): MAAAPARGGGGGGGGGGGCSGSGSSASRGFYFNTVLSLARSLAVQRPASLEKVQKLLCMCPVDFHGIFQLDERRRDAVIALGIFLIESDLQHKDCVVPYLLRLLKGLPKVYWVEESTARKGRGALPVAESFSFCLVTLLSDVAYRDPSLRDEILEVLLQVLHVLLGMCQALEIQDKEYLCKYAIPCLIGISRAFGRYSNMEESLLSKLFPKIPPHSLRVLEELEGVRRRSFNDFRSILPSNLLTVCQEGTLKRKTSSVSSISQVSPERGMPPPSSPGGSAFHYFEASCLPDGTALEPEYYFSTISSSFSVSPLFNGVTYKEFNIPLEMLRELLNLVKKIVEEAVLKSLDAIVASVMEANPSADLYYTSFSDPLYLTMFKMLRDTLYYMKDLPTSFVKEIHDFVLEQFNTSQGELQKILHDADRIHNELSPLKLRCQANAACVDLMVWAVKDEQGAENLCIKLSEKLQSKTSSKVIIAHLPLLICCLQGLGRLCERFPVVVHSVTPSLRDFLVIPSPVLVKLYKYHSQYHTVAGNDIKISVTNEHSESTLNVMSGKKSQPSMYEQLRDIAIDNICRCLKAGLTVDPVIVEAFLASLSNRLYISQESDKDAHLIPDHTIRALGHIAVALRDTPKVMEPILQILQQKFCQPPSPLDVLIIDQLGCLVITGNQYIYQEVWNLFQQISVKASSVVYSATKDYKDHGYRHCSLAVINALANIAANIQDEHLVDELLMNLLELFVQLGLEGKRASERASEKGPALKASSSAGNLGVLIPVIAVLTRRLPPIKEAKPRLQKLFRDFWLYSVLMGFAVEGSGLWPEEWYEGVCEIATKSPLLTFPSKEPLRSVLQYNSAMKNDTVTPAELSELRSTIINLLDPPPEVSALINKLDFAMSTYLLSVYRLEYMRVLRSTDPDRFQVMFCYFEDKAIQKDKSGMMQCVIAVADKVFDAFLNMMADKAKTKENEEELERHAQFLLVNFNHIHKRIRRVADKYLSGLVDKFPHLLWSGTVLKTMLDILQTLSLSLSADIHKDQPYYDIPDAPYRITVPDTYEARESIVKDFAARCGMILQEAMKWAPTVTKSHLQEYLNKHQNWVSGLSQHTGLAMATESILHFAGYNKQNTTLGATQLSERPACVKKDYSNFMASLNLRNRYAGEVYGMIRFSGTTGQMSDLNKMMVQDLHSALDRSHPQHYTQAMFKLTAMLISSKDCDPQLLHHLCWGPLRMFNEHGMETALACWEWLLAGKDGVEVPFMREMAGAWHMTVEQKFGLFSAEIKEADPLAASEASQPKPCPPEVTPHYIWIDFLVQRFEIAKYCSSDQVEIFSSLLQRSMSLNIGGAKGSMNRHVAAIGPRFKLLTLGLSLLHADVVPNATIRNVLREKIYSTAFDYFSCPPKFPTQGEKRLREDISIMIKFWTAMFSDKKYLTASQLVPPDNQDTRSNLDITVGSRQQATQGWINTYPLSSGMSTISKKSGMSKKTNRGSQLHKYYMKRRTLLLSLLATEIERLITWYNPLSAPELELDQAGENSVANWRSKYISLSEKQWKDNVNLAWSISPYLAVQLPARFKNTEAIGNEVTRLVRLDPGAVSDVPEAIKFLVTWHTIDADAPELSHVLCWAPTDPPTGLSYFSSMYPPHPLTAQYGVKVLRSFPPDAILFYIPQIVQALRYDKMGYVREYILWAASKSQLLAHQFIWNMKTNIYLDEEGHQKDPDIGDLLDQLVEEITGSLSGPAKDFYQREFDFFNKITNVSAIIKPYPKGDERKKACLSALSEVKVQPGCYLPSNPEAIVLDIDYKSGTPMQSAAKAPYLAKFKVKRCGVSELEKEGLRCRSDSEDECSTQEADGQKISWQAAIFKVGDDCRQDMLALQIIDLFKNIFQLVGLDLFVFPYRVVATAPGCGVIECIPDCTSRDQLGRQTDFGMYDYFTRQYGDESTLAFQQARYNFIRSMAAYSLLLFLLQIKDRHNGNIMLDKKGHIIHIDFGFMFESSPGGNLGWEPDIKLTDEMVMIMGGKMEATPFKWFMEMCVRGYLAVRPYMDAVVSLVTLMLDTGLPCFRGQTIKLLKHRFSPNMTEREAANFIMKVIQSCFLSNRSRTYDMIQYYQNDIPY
T1 sequence (P42338 whole entry): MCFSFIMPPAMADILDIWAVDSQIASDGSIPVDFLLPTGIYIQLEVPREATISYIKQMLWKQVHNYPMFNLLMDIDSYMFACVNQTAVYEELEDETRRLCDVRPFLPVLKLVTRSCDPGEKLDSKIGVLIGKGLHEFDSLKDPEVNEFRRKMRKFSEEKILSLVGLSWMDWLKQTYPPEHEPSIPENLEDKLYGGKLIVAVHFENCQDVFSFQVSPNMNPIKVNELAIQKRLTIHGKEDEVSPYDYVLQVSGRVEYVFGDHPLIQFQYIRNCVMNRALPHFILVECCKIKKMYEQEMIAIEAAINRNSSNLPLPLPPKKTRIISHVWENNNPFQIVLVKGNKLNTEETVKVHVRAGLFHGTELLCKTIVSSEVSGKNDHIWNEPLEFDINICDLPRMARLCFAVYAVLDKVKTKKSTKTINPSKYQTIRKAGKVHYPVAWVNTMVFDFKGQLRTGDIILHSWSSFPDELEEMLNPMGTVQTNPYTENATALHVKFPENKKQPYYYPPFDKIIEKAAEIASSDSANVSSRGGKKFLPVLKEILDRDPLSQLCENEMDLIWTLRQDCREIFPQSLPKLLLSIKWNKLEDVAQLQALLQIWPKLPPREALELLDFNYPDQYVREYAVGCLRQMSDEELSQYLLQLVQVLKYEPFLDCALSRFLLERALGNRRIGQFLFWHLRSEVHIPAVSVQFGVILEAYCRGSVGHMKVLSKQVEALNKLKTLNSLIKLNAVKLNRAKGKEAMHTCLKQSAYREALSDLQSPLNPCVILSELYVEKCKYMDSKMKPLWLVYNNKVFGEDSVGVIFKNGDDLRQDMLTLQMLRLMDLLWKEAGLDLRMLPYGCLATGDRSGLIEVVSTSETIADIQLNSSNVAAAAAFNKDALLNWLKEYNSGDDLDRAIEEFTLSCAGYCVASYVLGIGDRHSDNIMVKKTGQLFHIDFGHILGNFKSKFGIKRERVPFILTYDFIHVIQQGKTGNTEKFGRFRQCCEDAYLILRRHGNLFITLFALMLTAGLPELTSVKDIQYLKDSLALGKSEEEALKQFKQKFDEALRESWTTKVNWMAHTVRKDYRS
T1 sequence (P27986 whole entry partner): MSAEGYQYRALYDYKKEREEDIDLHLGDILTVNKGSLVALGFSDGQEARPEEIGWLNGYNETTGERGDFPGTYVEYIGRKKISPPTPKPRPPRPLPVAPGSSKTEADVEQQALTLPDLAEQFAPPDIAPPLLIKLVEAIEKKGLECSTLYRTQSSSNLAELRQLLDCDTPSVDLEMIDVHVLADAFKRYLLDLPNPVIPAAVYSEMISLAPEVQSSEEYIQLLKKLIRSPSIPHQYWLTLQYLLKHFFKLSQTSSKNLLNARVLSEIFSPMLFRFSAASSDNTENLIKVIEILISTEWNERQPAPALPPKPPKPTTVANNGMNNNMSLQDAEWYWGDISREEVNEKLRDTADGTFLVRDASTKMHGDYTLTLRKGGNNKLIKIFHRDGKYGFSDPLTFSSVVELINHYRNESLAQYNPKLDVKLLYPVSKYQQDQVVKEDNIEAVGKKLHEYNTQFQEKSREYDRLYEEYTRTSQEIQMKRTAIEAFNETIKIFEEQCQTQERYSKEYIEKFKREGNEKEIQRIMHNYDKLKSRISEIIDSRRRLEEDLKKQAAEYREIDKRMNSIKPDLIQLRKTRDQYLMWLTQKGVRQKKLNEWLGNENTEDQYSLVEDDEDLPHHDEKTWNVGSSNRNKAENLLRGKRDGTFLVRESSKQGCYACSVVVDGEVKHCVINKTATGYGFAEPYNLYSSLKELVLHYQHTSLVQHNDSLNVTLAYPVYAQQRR

Nc1nc(N2CCN(C(=O)COc3ccc(Cl)cc3)CC2)c2nc(-c3cccnc3)sc2n1 [formula (1), 5-amino-7-[4-(4-chlorophenoxyacetyl)piperazin-1-yl]-2-(pyridin-3-yl)thiazolo[5,4-d]pyrimidine]
grafts surviving as long as treatment continued ([1]; 40 mg/kg daily gavage): 3 out of 4 | graft function after withdrawal of the treatment ([1]; 40 mg/kg daily gavage until day 30): continued beating after withdrawal of the treatment (up to 60 days) | Kinase activity [2]: 100 percentage of control | Kinase activity [3]: 99 percentage of control | Kinase activity [4]: 115 percentage of control
